{"source": "ChEMBL document CHEMBL4418270", "about": "“Novel Pyrimidine- And Triazine-Hepcidine Antagonists” (2012)"}
{"target": "T1, Hepcidin (Homo sapiens) (UniProt P81172)", "T1 sequence (whole entry)": "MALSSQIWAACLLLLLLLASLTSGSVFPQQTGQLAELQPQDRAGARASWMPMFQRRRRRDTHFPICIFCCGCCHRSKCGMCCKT", "test": "Inhibition of human hepcidin-stimulated recombinant C-terminal Halo-tagged human FPN internalization in MDCK cells at 10 uM incubated for 15 to 20 mins by Halo-tagged TMR based fluorescence assay relative to control", "assay_type": "cell-based", "units": {"inhibition": "%"}}
{"smiles": "COc1ccc(O)c(/C=N/Nc2nc(N3CCOCC3)nc(N3CCOCC3)n2)c1", "inhibition": "> 50"}
{"smiles": "Cc1nc(-c2ccccn2)nc(NCCNc2ccc(C(F)(F)F)cn2)c1Cl", "inhibition": "< 50"}
{"smiles": "Cc1nc(N/N=C/c2ccc(O)cc2O)cc(N2CCOCC2)n1", "inhibition": "> 50"}
{"smiles": "c1ccc(N(c2ccccc2)c2nc(N3CCOCC3)nc(-n3ccnc3)n2)cc1", "inhibition": "> 50"}
{"smiles": "C/C(=N\\Nc1cc(N2CCOCC2)nc(C)n1)c1ccc(F)cc1", "inhibition": "< 50"}
{"smiles": "Nc1nc(-c2ccccn2)nc(N)c1Cc1ccccc1F", "inhibition": "< 50"}
{"smiles": "CN(c1ccccc1)c1nc(N2CCOCC2)nc(-n2ccnc2)n1", "inhibition": "< 50"}
{"smiles": "COc1cnc(-c2ccccn2)nc1NC(C)C", "inhibition": "> 50"}
{"smiles": "Cc1nc(-c2ccccn2)nc(NCCNc2cc(C(F)(F)F)ccn2)c1Cl", "inhibition": "< 50"}
{"smiles": "Cc1ccc2cc(Nc3nc(N4CCOCC4)nc(N4CCOCC4)n3)ccc2n1", "inhibition": "< 50"}
{"smiles": "Oc1ccccc1/C=N/Nc1cc(N2CCOCC2)nc(N2CCOCC2)n1", "inhibition": "> 50"}
{"smiles": "Oc1cccc(/C=N/Nc2cc(N3CCOCC3)nc(N3CCOCC3)n2)c1", "inhibition": "> 50"}
